{
  "source": "PubChem BioAssay (NCI)",
  "test_in_all_cases": "NCI-60 cell line screen, 48 h",
  "key": {"BT-549 breast": {"test_system": "BT-549 breast"}, "CCRF-CEM leukemia": {"test_system": "CCRF-CEM leukemia"}, "DU-145 prostate": {"test_system": "DU-145 prostate"}, "HL-60(TB) leukemia": {"test_system": "HL-60(TB) leukemia"}, "RPMI-8226 leukemia": {"test_system": "RPMI-8226 leukemia"}, "SK-MEL-2 melanoma": {"test_system": "SK-MEL-2 melanoma"}},
  "note": "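Grown in 96-well plates, cells were treated for 48 hours with each compound at five concentrations. Insufficient inhibition: endpoint recorded as highest concentration tested. GI50 is the concentration that inhibits growth by half. TGI: concentration producing complete growth inhibition.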",
  "data": [
    {"smiles": "N=C(N)c1ccc(-c2ccc(-c3ccc(Cl)c(Cl)c3)s2)cc1", "values": [
      {"measurement": "GI50", "setting": "BT-549 breast", "result": 6.39, "unit": "µM"},
      {"measurement": "TGI", "setting": "BT-549 breast", "result": 50, "unit": "µM"},
      {"measurement": "GI50", "setting": "CCRF-CEM leukemia", "result": 1.54, "unit": "µM"},
      {"measurement": "TGI", "setting": "CCRF-CEM leukemia", "result": 4.26, "unit": "µM"},
      {"measurement": "GI50", "setting": "DU-145 prostate", "result": 1.75, "unit": "µM"},
      {"measurement": "TGI", "setting": "DU-145 prostate", "result": 3.13, "unit": "µM"},
      {"measurement": "GI50", "setting": "HL-60(TB) leukemia", "result": 1.7, "unit": "µM"},
      {"measurement": "TGI", "setting": "HL-60(TB) leukemia", "result": 4.23, "unit": "µM"},
      {"measurement": "GI50", "setting": "RPMI-8226 leukemia", "result": 1.89, "unit": "µM"},
      {"measurement": "TGI", "setting": "RPMI-8226 leukemia", "result": 4.37, "unit": "µM"},
      {"measurement": "GI50", "setting": "SK-MEL-2 melanoma", "result": 2.51, "unit": "µM"},
      {"measurement": "TGI", "setting": "SK-MEL-2 melanoma", "result": 5.8, "unit": "µM"}
    ]}
  ]
}
